Measurements: patent publication US12680078B2, “Differentiation of pluripotent stem cells and cardiac progenitor cells into striated cardiomyocyte fibers using laminins LN-511, LN-521 and LN-221” (National University of Singapore, priority 2013, dated 2026)
Where a name gives a salt, the structure may show the parent alone. Read-outs that look alike come from different tables or passages of the source.

Experiments:
cardiomyocytes [1] = assay: Cell viability assay (ATP content) on hESC-derived cardiomyocytes; format: cell-based; details: Homo sapiens, Cardiomyocyte, read-out: EC50 (cell viability, ATP content)
Description: FIG. 12G is a graph showing ATP content (relative light units×1000) versus log concentration of valinomycin. The y-axis runs from 0 to 5 in increments of 1. The x-axis runs from −7 to −3 in increments of 1.
FIG. 12H is a graph showing ATP content (relative light units×1000) versus log concentration of emetine dihydrochloride. The y-axis runs from 0 to 6 in increments of 2. The x-axis runs from −8 to −3 in increments of 1.
(§1) Cellular responses to adrenergic stimulation were also tested with MEA.

cardiomyocytes [2] = assay: Multi-electrode assay (MEA) of cellular responses to adrenergic stimulation; format: cell-based, human; details: upon exposure
Description: To further characterize the functionality of the cardiomyocytes, single cell patch clamp and multi-electrode assay (MEA) were utilized to measure their action potential. 13.60% mimicked the nodal subtype, 22.20% mimicked the atrial subtype, and 64.20% mimicked the heart ventricle subtype (see FIG. 8(C)).
as §1

Compound: CC[C@H]1CN2CCc3cc(OC)c(OC)cc3[C@@H]2C[C@@H]1C[C@H]1NCCc2cc(OC)c(OC)cc21 [emetine dihydrochloride]
- EC50 (cardiomyocytes [1]; hESC-derived cardiomyocytes, FIG. 12G/12H): 6.08 µM

Compound: CC(C)NCC(O)c1ccc(NS(C)(=O)=O)cc1 (stereo not shown) [Sotalol]
- corrected field potential duration (cFPD) (cardiomyocytes [2]): shortened corrected field potential duration (cFPD)

Compound: CC(C)NCC(O)c1ccc(O)c(O)c1 (stereo not shown) [isoproterenol]
- heart rate (cardiomyocytes [2]): increased heart rate

Compound: CC(C)[C@@H]1NC(=O)[C@H](C)OC(=O)[C@@H](C(C)C)NC(=O)[C@@H](C(C)C)OC(=O)[C@H](C(C)C)NC(=O)[C@H](C)OC(=O)[C@@H](C(C)C)NC(=O)[C@@H](C(C)C)OC(=O)[C@H](C(C)C)NC(=O)[C@H](C)OC(=O)[C@@H](C(C)C)NC(=O)[C@@H](C(C)C)OC1=O [valinomycin]
- EC50 (cardiomyocytes [1]): 13.1 µM
